Where two headings read alike, the source gives them in different places.
Key:
[1] = test system: Acinetobacter baumannii strains; assay: Minimum inhibitory concentration (CLSI M07), Example 2, 20 strains; format: cell-based; details: for MIC: read-out: MIC
Procedure: The minimum inhibitory concentration (MIC) was determined in accordance with the requirements of the Clinical and Laboratory Standards Institute (CLSI) M07 (for aerobic bacteria).
3.1 The compounds were diluted with DMSO up to 100 times of the highest concentration tested.
The steps of manual dilution are as follows (example): firstly, the compound or antibiotic was diluted to 100 times of the maximum final concentration tested, then 60 μL of compound mother liquor was added to the first column of the 96-well plate, and 30 μL of DMSO was added to each well in the second to the 12th column; 30 μL of the liquid was transferred from the first column to the second column. After being pipetted up and down to even, 30 μL was transferred to the third column, and was diluted in sequence at a 2-fold gradient for a total of 10 times; then 30 μL was removed from each well in the 11th column, then a compound solution diluted at 2-fold gradient was obtained and 1 μL was transferred to a 96-well test plate.
Aerobic bacteria: the strains were inoculated on MHA one day in advance and incubated overnight at 37° C. On the day of the assay, 5-6 single colonies were picked and suspended evenly in saline, and the bacterial concentration was adjusted to the turbidity of 0.5 McFarland standard (concentration is about 1×10^8 CFU/mL). The bacterial suspension was diluted at 200-fold with the corresponding liquid culture medium (Table 1), i.e., the bacterial concentration was ~5×10^5 CFU/ml, and then 100 μL of the liquid was transferred to a 96-well round bottom plate (the 96-well plate with compound prepared in 4.2, Echo method) to obtain the test plate. If the compound was manually diluted, then 99 μL of the solution was transferred into a 96-well round bottom plate. The 96-well round bottom plate obtained above was placed into an incubator at 37° C. and 85% humidity to incubate for 20 h.

[2] = Pharmacokinetics in plasma and bronchoalveolar lavage fluid of female CD-1 mice; format: in vivo; details: mouse, female CD-1 mice
Procedure: An appropriate amount of the test drug was accurately weighed and mixed with the appropriate volume of vehicle (5% DMSO+0.5% Tween 80 in normal saline) to obtain a clear solution for the test in Table 9. The formulation solution for injection was prepared to sterile filtration through a 0.22 μm filter prior to administration. The mice were dosed with the drug within 30 min after the formulated solution for injection was prepared. A 1.5 mL of the formulation solution for injection was transferred into a polypropylene microcentrifuge tube for dose verification by LC/UV or LC-MS/MS.
All blood samples were transferred to pre-frozen EDTA-K2 tubes and placed on wet ice until centrifugation. […]
Plasma: approximately 100 μL of blood sample was transferred into pre-cooled commercial EDTA-K2 tubes and placed on wet ice until centrifugation. After the blood samples were centrifuged at approximately 4° C. and 3, 200 g for 10 min, plasma was collected and transferred to pre-labeled 96-well plates or polypropylene tubes, flash frozen on dry ice, and stored at ≤−60° C. until the analysis by LC-MS/MS.
Serum: approximately 100 μL of blood sample was transferred into a tube without anticoagulant and placed on wet ice for approximately 30 min and centrifuged at 4° C. and 3,000 g for 10 min, and the serum was collected and transferred into pre-labeled PP tubes placed on wet ice. After the completion of all the collections, serum samples were stored at −60° C. until being sent to the animal experimental team to determine urea concentration.
Bronchoalveolar lavage fluid (BALF): pre-cooled tracheo-alveolar lavage fluid was injected into the trachea or predefined bronchi. After a full expansion of the lung tissue, the lavage fluid was slowly drawn out with a syringe 30 s later. The lung was lavaged three times. During the last lavage, the lung tissue was gently squeezed to restore the fluid. To prevent contamination of other lung tissues, the corresponding bronchi were ligated. Both lungs of the mice were perfused with 0.8 mL.
[…] Approximately 200 μL of the BALF samples were transferred into a polypropylene tube, rapidly frozen on dry ice, maintained at ≤−60° C., and sent to the animal experimental team to determine urea concentration. The remaining BALF samples (approximately 600 μL) were rapidly frozen on dry ice and maintained at ≤−60° C. until being submitted for drug concentration analysis by LC-MS/MS.

Compound: CC1(C)[C@H](C(=O)[O][Na+])N2C(=O)C[C@H]2S1(=O)=O [Sulbactam sodium, sulbactam sodium]
- MIC ([1]; Acinetobacter baumannii, ATCC17978, strain ATCC 17978): 8 µg/mL
- MIC ([1]; Acinetobacter baumannii, ATCC19606, strain ATCC 19606): 2 µg/mL
- MIC ([1]; Acinetobacter baumannii, ATCCBAA1605, strain ATCC-BAA-1605): 32 µg/mL
- MIC ([1]; Acinetobacter baumannii, ATCCBAA1789, strain ATCC-BAA-1789): 4 µg/mL
- MIC ([1]; Acinetobacter baumannii, ATCCBAA1790, strain ATCC-BAA-1790): 16 µg/mL
- MIC ([1]; Acinetobacter baumannii, ATCCBAA1791, strain ATCC-BAA-1791): 8 µg/mL
- MIC ([1]; Acinetobacter baumannii, ATCCBAA1792, strain ATCC-BAA-1792): 32 µg/mL
- MIC ([1]; Acinetobacter baumannii, ATCCBAA1793, strain ATCC-BAA-1793): 32 µg/mL
- MIC ([1]; Acinetobacter baumannii, ATCCBAA1794, strain ATCC-BAA-1794): 8 µg/mL
- MIC ([1]; Acinetobacter baumannii, ATCCBAA1795, strain ATCC-BAA-1795): 64 µg/mL
- MIC ([1]; Acinetobacter baumannii, ATCCBAA1796, strain ATCC-BAA-1796): 16 µg/mL
- MIC ([1]; Acinetobacter baumannii, ATCCBAA1797, strain ATCC-BAA-1797): 8 µg/mL
- MIC ([1]; Acinetobacter baumannii, ATCCBAA1798, strain ATCC-BAA-1798): 16 µg/mL
- MIC ([1]; Acinetobacter baumannii, ATCCBAA1799, strain ATCC-BAA-1799): 64 µg/mL
- MIC ([1]; Acinetobacter baumannii, ATCCBAA1800, strain ATCC-BAA-1800): 32 µg/mL
- MIC ([1]; Acinetobacter baumannii, strain ARLG-1791): 32 µg/mL
- MIC ([1]; Acinetobacter baumannii, strain ARLG-1809): 32 µg/mL
- MIC ([1]; Acinetobacter baumannii, strain ARLG-1852): 16 µg/mL
- MIC ([1]; Acinetobacter baumannii, strain ARLG-1853): 32 µg/mL
- MIC ([1]; Acinetobacter baumannii, strain ARLG-1881): 128 µg/mL
- MIC50 ([1]; Acinetobacter baumannii, Example 2, 20 strains, read-out: MIC50): 32 µg/mL
- MIC90 ([1]; Acinetobacter baumannii, Example 2, 20 strains, read-out: MIC90): 64 µg/mL
- MIC range ([1]; Example 2, 20 strains): 2 to 128 µg/mL
- MIC of this strain BAA-1795 (component in the combination) ([1]; strain BAA-1795): 8 µg/mL
- MIC of the strain BAA-1795 (component in the combination) ([1]; strain BAA-1795, sulbactam/avibactam 4:1, concentration of the named component): 8 µg/mL
- Kp ([2]; BALF/plasma, intravenous, 150 mg/kg, BALF column, read-out: AUC Ratio): 0.0248
- AUC(0-t) ([2]; bronchoalveolar lavage fluid (BALF), intravenous dripping 150 mg/kg, BALF, read-out: AUC0-last, BALF): 1310 ng·h/mL
- Cmax ([2]; bronchoalveolar lavage fluid (BALF), intravenous dripping 150 mg/kg, BALF, read-out: Cmax, mean BALF concentration): 617 ng/mL
- MRT last ([2]; bronchoalveolar lavage fluid (BALF), intravenous dripping 150 mg/kg, BALF, read-out: MRT0-last, BALF): 1.72 h
- half-life ([2]; bronchoalveolar lavage fluid (BALF), intravenous dripping 150 mg/kg, BALF, read-out: T1/2, BALF (converted)): 43.5 min
- Tmax ([2]; bronchoalveolar lavage fluid (BALF), intravenous dripping 150 mg/kg, BALF, read-out: Tmax, BALF): 3 h
- clearance ([2]; intravenous dripping 150 mg/kg, plasma): 47.2 mL/min/kg
- AUC(0-t) ([2]; intravenous dripping 150 mg/kg, plasma, read-out: AUC0-last, plasma): 52900 ng·h/mL
- Cmax ([2]; intravenous dripping 150 mg/kg, plasma, read-out: Cmax, mean plasma concentration): 19600 ng/mL
- MRT last ([2]; intravenous dripping 150 mg/kg, plasma, read-out: MRT0-last, plasma): 0.44 h
- half-life ([2]; intravenous dripping 150 mg/kg, plasma, read-out: T1/2, plasma (converted)): 52.4 min
- Tmax ([2]; intravenous dripping 150 mg/kg, plasma, read-out: Tmax, plasma): 1 h
- Vd ([2]; intravenous dripping 150 mg/kg, plasma, read-out: Vdss): 1.26 L/kg
